Laboratory results as given in ChEMBL document CHEMBL1201861, “Genomics of Drug Sensitity in Cancer screening data, Wellcome Trust Sanger Institute”.

tested on: COLO-741; experiment: cells; type: functional, cell-based; conditions: Homo sapiens
Description: SANGER: Inhibition of human COLO-741 cell growth in a cell viability assay.

Row | SMILES | IC50
1 | O=C(NCCCNc1nc(Nc2cccc(NC(=O)N3CCCC3)c2)ncc1I)c1cccs1 [BX-795] | > 5 µM

tested on: COR-L23; experiment: cells; type: functional, cell-based; conditions: Homo sapiens;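 also: cell viability assay measuring how strongly compounds suppress growth of COR-L23 cells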
Description: SANGER: Inhibition of human COR-L23 cell growth in a cell viability assay.

Row | SMILES | IC50
2 | O=C(NCCCNc1nc(Nc2cccc(NC(=O)N3CCCC3)c2)ncc1I)c1cccs1 [BX-795] | 4.02 µM

tested on: D-392MG; experiment: cells; type: functional, cell-based; conditions: Homo sapiens

Row | SMILES | IC50
3 | O=C(NCCCNc1nc(Nc2cccc(NC(=O)N3CCCC3)c2)ncc1I)c1cccs1 [BX-795] | > 5 µM

tested on: Detroit 562; experiment: cells; type: functional, cell-based; conditions: Homo sapiens;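 also: growth inhibition of human Detroit 562 cells, read out by a cell viability assay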
Description: SANGER: Inhibition of human Detroit562 cell growth in a cell viability assay.

Row | SMILES | IC50
4 | O=C(NCCCNc1nc(Nc2cccc(NC(=O)N3CCCC3)c2)ncc1I)c1cccs1 [BX-795] | 3.89 µM

tested on: EFO-21; experiment: cells; type: functional, cell-based; conditions: Homo sapiens;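 also: growth inhibition of EFO-21 cells measured with a viability assay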
Description: SANGER: Inhibition of human EFO-21 cell growth in a cell viability assay.

Row | SMILES | IC50
5 | O=C(NCCCNc1nc(Nc2cccc(NC(=O)N3CCCC3)c2)ncc1I)c1cccs1 [BX-795] | > 5 µM

tested on: HMV-2 cell line; experiment: cells; type: functional, cell-based; conditions: Homo sapiens;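 also: growth inhibition of HMV-II cells, read out with a cell viability assay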
Description: SANGER: Inhibition of human HMV-II cell growth in a cell viability assay.

Row | SMILES | IC50
6 | O=C(NCCCNc1nc(Nc2cccc(NC(=O)N3CCCC3)c2)ncc1I)c1cccs1 [BX-795] | > 5 µM

tested on: LCLC-97TM1; experiment: cells; type: functional, cell-based; conditions: Homo sapiens;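 also: cell viability assay measuring growth inhibition of human LCLC-97TM1 cells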
Description: SANGER: Inhibition of human LCLC-97TM1 cell growth in a cell viability assay.

Row | SMILES | IC50
7 | O=C(NCCCNc1nc(Nc2cccc(NC(=O)N3CCCC3)c2)ncc1I)c1cccs1 [BX-795] | > 5 µM

tested on: LU-135; experiment: cells; type: functional, cell-based; conditions: Homo sapiens
Description: SANGER: Inhibition of human LU-135 cell growth in a cell viability assay.

Row | SMILES | IC50
8 | O=C(NCCCNc1nc(Nc2cccc(NC(=O)N3CCCC3)c2)ncc1I)c1cccs1 [BX-795] | > 5 µM

tested on: LoVo; experiment: cells; type: functional, cell-based; conditions: Homo sapiens;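 also: growth inhibition of human LoVo cells, read out with a cell viability assay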
Description: SANGER: Inhibition of human LoVo cell growth in a cell viability assay.

Row | SMILES | IC50
9 | O=C(NCCCNc1nc(Nc2cccc(NC(=O)N3CCCC3)c2)ncc1I)c1cccs1 [BX-795] | > 5 µM

tested on: MCF7; experiment: cells; type: functional, cell-based; conditions: Homo sapiens;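 also: growth inhibition of human MCF7 cells, read out with a cell viability assay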
Description: SANGER: Inhibition of human MCF7 cell growth in a cell viability assay.

Row | SMILES | IC50
10 | O=C(NCCCNc1nc(Nc2cccc(NC(=O)N3CCCC3)c2)ncc1I)c1cccs1 [BX-795] | > 5 µM

tested on: NB12; experiment: cells; type: functional, cell-based; conditions: Homo sapiens;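 also: growth inhibition of human NB12 cells, read out by a cell viability assay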
Description: SANGER: Inhibition of human NB12 cell growth in a cell viability assay.

Row | SMILES | IC50
11 | O=C(NCCCNc1nc(Nc2cccc(NC(=O)N3CCCC3)c2)ncc1I)c1cccs1 [BX-795] | > 5 µM

tested on: NBsusSR; experiment: cells; type: functional, cell-based; conditions: Homo sapiens;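 also: growth inhibition of the human cell line, read out with a cell viability assay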
Description: SANGER: Inhibition of human NBsusSR cell growth in a cell viability assay.

Row | SMILES | IC50
12 | O=C(NCCCNc1nc(Nc2cccc(NC(=O)N3CCCC3)c2)ncc1I)c1cccs1 [BX-795] | 1250 nM

tested on: NCI-H1666; experiment: cells; type: functional, cell-based; conditions: Homo sapiens;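 also: growth inhibition of the cell line, read out with a cell viability assay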
Description: SANGER: Inhibition of human NCI-H1666 cell growth in a cell viability assay.

Row | SMILES | IC50
13 | O=C(NCCCNc1nc(Nc2cccc(NC(=O)N3CCCC3)c2)ncc1I)c1cccs1 [BX-795] | > 5 µM

tested on: NCI-H1693; experiment: cells; type: functional, cell-based; conditions: Homo sapiens;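 also: growth inhibition of the human cell line, read out with a cell viability assay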
Description: SANGER: Inhibition of human NCI-H1693 cell growth in a cell viability assay.

Row | SMILES | IC50
14 | O=C(NCCCNc1nc(Nc2cccc(NC(=O)N3CCCC3)c2)ncc1I)c1cccs1 [BX-795] | > 5 µM

tested on: NCI-H1792; experiment: cells; type: functional, cell-based; conditions: Homo sapiens;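 also: growth inhibition of human NCI-H1792 cells, read out as cell viability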
Description: SANGER: Inhibition of human NCI-H1792 cell growth in a cell viability assay.

Row | SMILES | IC50
15 | O=C(NCCCNc1nc(Nc2cccc(NC(=O)N3CCCC3)c2)ncc1I)c1cccs1 [BX-795] | > 5 µM

tested on: NCI-H2291; experiment: cells; type: functional, cell-based; conditions: Homo sapiens
Description: SANGER: Inhibition of human NCI-H2291 cell growth in a cell viability assay.

Row | SMILES | IC50
16 | O=C(NCCCNc1nc(Nc2cccc(NC(=O)N3CCCC3)c2)ncc1I)c1cccs1 [BX-795] | > 5 µM

tested on: NCI-H358; experiment: cells; type: functional, cell-based; conditions: Homo sapiens;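 also: growth inhibition of NCI-H358 human cells, read out with a cell viability assay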
Description: SANGER: Inhibition of human NCI-H358 cell growth in a cell viability assay.

Row | SMILES | IC50
17 | O=C(NCCCNc1nc(Nc2cccc(NC(=O)N3CCCC3)c2)ncc1I)c1cccs1 [BX-795] | > 5 µM

tested on: NCI-H727; experiment: cells; type: functional, cell-based; conditions: Homo sapiens;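 also: growth inhibition of human NCI-H727 cells, read out with a cell viability assay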
Description: SANGER: Inhibition of human NCI-H727 cell growth in a cell viability assay.

Row | SMILES | IC50
18 | O=C(NCCCNc1nc(Nc2cccc(NC(=O)N3CCCC3)c2)ncc1I)c1cccs1 [BX-795] | > 5 µM

tested on: OAW-42; experiment: cells; type: functional, cell-based; conditions: Homo sapiens;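 also: growth inhibition of OAW-42 cells, read out with a cell viability assay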
Description: SANGER: Inhibition of human OAW-42 cell growth in a cell viability assay.

Row | SMILES | IC50
19 | O=C(NCCCNc1nc(Nc2cccc(NC(=O)N3CCCC3)c2)ncc1I)c1cccs1 [BX-795] | 3.66 µM

tested on: OVCAR-3; experiment: cells; type: functional, cell-based; conditions: Homo sapiens;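 also: growth inhibition of human OVCAR-3 cells, determined by a cell viability assay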
Description: SANGER: Inhibition of human OVCAR-3 cell growth in a cell viability assay.

Row | SMILES | IC50
20 | O=C(NCCCNc1nc(Nc2cccc(NC(=O)N3CCCC3)c2)ncc1I)c1cccs1 [BX-795] | > 5 µM

tested on: PC-14; experiment: cells; type: functional, cell-based; conditions: Homo sapiens;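 also: cell viability assay measuring inhibition of PC-14 cell growth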
Description: SANGER: Inhibition of human PC-14 cell growth in a cell viability assay.

Row | SMILES | IC50
21 | O=C(NCCCNc1nc(Nc2cccc(NC(=O)N3CCCC3)c2)ncc1I)c1cccs1 [BX-795] | > 5 µM

tested on: RERF-LC-MS; experiment: cells; type: functional, cell-based; conditions: Homo sapiens;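 also: growth inhibition of human RERF-LC-MS cells, read out by a cell viability assay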
Description: SANGER: Inhibition of human RERF-LC-MS cell growth in a cell viability assay.

Row | SMILES | IC50
22 | O=C(NCCCNc1nc(Nc2cccc(NC(=O)N3CCCC3)c2)ncc1I)c1cccs1 [BX-795] | > 5 µM

tested on: RH-18; experiment: cells; type: functional, cell-based; conditions: Homo sapiens, Rh18;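 also: growth inhibition of human RH-18 cells, read out with a cell viability assay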
Description: SANGER: Inhibition of human RH-18 cell growth in a cell viability assay.

Row | SMILES | IC50
23 | O=C(NCCCNc1nc(Nc2cccc(NC(=O)N3CCCC3)c2)ncc1I)c1cccs1 [BX-795] | > 5 µM

tested on: SCC-9; experiment: cells; type: functional, cell-based; conditions: Homo sapiens;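 also: Read-out is a cell viability assay, with values giving inhibition of cell growth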
Description: SANGER: Inhibition of human SCC-9 cell growth in a cell viability assay.

Row | SMILES | IC50
24 | O=C(NCCCNc1nc(Nc2cccc(NC(=O)N3CCCC3)c2)ncc1I)c1cccs1 [BX-795] | > 5 µM

tested on: SK-MEL3; experiment: cells; type: functional, cell-based, SK-MEL-3; conditions: Homo sapiens;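 also: growth inhibition of human SK-MEL-3 cells, read out with a cell viability assay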
Description: SANGER: Inhibition of human SK-MEL-3 cell growth in a cell viability assay.

Row | SMILES | IC50
25 | O=C(NCCCNc1nc(Nc2cccc(NC(=O)N3CCCC3)c2)ncc1I)c1cccs1 [BX-795] | > 5 µM

tested on: SNU-387; experiment: cells; type: functional, cell-based; conditions: Homo sapiens
Description: SANGER: Inhibition of human SNU-387 cell growth in a cell viability assay.

Row | SMILES | IC50
26 | O=C(NCCCNc1nc(Nc2cccc(NC(=O)N3CCCC3)c2)ncc1I)c1cccs1 [BX-795] | 3.81 µM

tested on: SW-620; experiment: cells; type: functional, cell-based; conditions: Homo sapiens;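 also: growth inhibition of human SW-620 cells, measured by a cell viability assay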
Description: SANGER: Inhibition of human SW620 cell growth in a cell viability assay.

Row | SMILES | IC50
27 | O=C(NCCCNc1nc(Nc2cccc(NC(=O)N3CCCC3)c2)ncc1I)c1cccs1 [BX-795] | > 5 µM

tested on: SW837; experiment: cells; type: functional, cell-based; conditions: Homo sapiens;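 also: growth inhibition of SW837 cells, determined with a cell viability assay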
Description: SANGER: Inhibition of human SW837 cell growth in a cell viability assay.

Row | SMILES | IC50
28 | O=C(NCCCNc1nc(Nc2cccc(NC(=O)N3CCCC3)c2)ncc1I)c1cccs1 [BX-795] | > 5 µM

tested on: TCC-SUP; experiment: cells; type: functional, cell-based; conditions: Homo sapiens;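 also: growth inhibition of TCC-SUP cells, read out with a cell viability assay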
Description: SANGER: Inhibition of human TCCSUP cell growth in a cell viability assay.

Row | SMILES | IC50
29 | O=C(NCCCNc1nc(Nc2cccc(NC(=O)N3CCCC3)c2)ncc1I)c1cccs1 [BX-795] | > 5 µM

tested on: AU565; experiment: cells; type: functional, cell-based; conditions: Homo sapiens;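 also: cell viability assay measuring growth inhibition of human AU565 cells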
Description: SANGER: Inhibition of human AU565 cell growth in a cell viability assay.

Row | SMILES | IC50
30 | O=C(NCCCNc1nc(Nc2cccc(NC(=O)N3CCCC3)c2)ncc1I)c1cccs1 [BX-795] | > 5 µM

tested on: BEN; experiment: cells; type: functional, cell-based; conditions: Homo sapiens;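 also: growth inhibition of the BEN cell line, read out with a cell viability assay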
Description: SANGER: Inhibition of human BEN cell growth in a cell viability assay.

Row | SMILES | IC50
31 | O=C(NCCCNc1nc(Nc2cccc(NC(=O)N3CCCC3)c2)ncc1I)c1cccs1 [BX-795] | > 5 µM

tested on: BFTC-905; experiment: cells; type: functional, cell-based; conditions: Homo sapiens
Description: SANGER: Inhibition of human BFTC-905 cell growth in a cell viability assay.

Row | SMILES | IC50
32 | O=C(NCCCNc1nc(Nc2cccc(NC(=O)N3CCCC3)c2)ncc1I)c1cccs1 [BX-795] | 1080 nM

tested on: TGBC11TKB; experiment: cells; type: functional, cell-based; conditions: Homo sapiens;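 also: growth inhibition of human TGBC11TKB cells, measured by a cell viability assay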
Description: SANGER: Inhibition of human TGBC11TKB cell growth in a cell viability assay.

Row | SMILES | IC50
33 | O=C(NCCCNc1nc(Nc2cccc(NC(=O)N3CCCC3)c2)ncc1I)c1cccs1 [BX-795] | > 5 µM

tested on: UACC-893; experiment: cells; type: functional, cell-based; conditions: Homo sapiens
Description: SANGER: Inhibition of human UACC-893 cell growth in a cell viability assay.

Row | SMILES | IC50
34 | O=C(NCCCNc1nc(Nc2cccc(NC(=O)N3CCCC3)c2)ncc1I)c1cccs1 [BX-795] | > 5 µM

tested on: CFPAC-1; experiment: cells; type: functional, cell-based; conditions: Homo sapiens;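 also: cell viability readout used to gauge suppression of CFPAC-1 cell proliferation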
Description: SANGER: Inhibition of human CFPAC-1 cell growth in a cell viability assay.

Row | SMILES | IC50
35 | O=C(NCCCNc1nc(Nc2cccc(NC(=O)N3CCCC3)c2)ncc1I)c1cccs1 [BX-795] | > 5 µM

tested on: CHP-212; experiment: cells; type: functional, cell-based; conditions: Homo sapiens
Description: SANGER: Inhibition of human CHP-212 cell growth in a cell viability assay.

Row | SMILES | IC50
36 | O=C(NCCCNc1nc(Nc2cccc(NC(=O)N3CCCC3)c2)ncc1I)c1cccs1 [BX-795] | 1140 nM
